Laboratory results published in patent publication US20110039721A1, “METHOD FOR PREDICTION ABOUT CARCINOGENICITY OF SUBSTANCE IN RODENT” (Chemicals Evaluation and Research Institute, priority 2007, published 2011).

Test system: mRNA expressed from the genes (A) to (D) in rat liver
Assay: Behavior of genes (mRNA expression level, oligo-DNA microarray) in rat liver after 28-day oral administration
Type: in vivo
Experimental: A test solution was prepared by dissolving each of the carcinogens and the non-carcinogens shown in Tables 2 to 6 in the corresponding solvent shown in Tables 2 to 6. Each of the thus prepared test solutions and the solvents used for the preparation was administered by oral gavage to rats in each group. As the rats, male rats (F344 SPF rats) at 5 weeks of age obtained from Charles River Laboratories Japan, Inc. were used. The animals were divided into groups, each containing four individuals. The volume of the solvent administered to the vehicle control group was set to the same volume as that of the test solution administered to the carcinogen administration group or the non-carcinogen administration group. The administration of the test solution or the solvent was performed once daily for 28 days. Apiece was excised from the liver of each of the rats after a lapse of 28 days from the initiation of the administration, and the total RNA was extracted and purified.
The expression level of mRNA was compared between each of the chemical substance administration groups and the corresponding vehicle control group, and genes that satisfy the requirements described in (A) to (D) were selected, respectively.
The case where the expression level of mRNA in the carcinogen administration group or the non-carcinogen administration group is 1.5 times or more or 1/1.5 or less of the expression level of the corresponding mRNA expressed in the control group was determined to be significant. In this connection, the determination as to whether or not the change is significant was performed by taking into consideration the direction of increase or decrease in the expression level. In the case where the direction of increase or decrease is different as compared with the case where another carcinogen was administered, the change was determined to be not significant.

[1] = gene group (A), Unigene No. Rn.167075
[2] = gene group (C), Unigene No. Rn.120914

CC(=O)Nc1ccc(O)cc1 [TS031, Acetaminophen]
Behavior of gene caused by administration of chemical substance, Gene No. 4846 (gene group (A), Unigene No. Rn.144554): −
Behavior of gene caused by administration of chemical substance, Gene No. 2026 [1]: +
Behavior of gene caused by administration of chemical substance, Gene No. 4218 [1]: −
Behavior of gene caused by administration of chemical substance, Gene No. 6182 (gene group (A), Unigene No. Rn.5834): −
Behavior of gene caused by administration of chemical substance, Gene No. 5600 (gene group (A), Unigene No. Rn.9836): −
Behavior of gene caused by administration of chemical substance, Gene No. 1494 (gene group (B), Unigene No. Rn.1430): +
Behavior of gene caused by administration of chemical substance, Gene No. 2045 (gene group (B), Unigene No. Rn.19329): −
Behavior of gene caused by administration of chemical substance, Gene No. 2203 (gene group (B), Unigene No. Rn.21240): −
Behavior of gene caused by administration of chemical substance, Gene No. 533 (gene group (C), Unigene No. Rn.106184): +
Behavior of gene caused by administration of chemical substance, Gene No. 725 (gene group (C), Unigene No. Rn.108075): −
Behavior of gene caused by administration of chemical substance, Gene No. 1163 (gene group (C), Unigene No. Rn.11766): −
Behavior of gene caused by administration of chemical substance, Gene No. 4973 (gene group (C), Unigene No. Rn.118529): −
Behavior of gene caused by administration of chemical substance, Gene No. 4095 (gene group (C), Unigene No. Rn.119024): −
Behavior of gene caused by administration of chemical substance, Gene No. 1334 [2]: −
Behavior of gene caused by administration of chemical substance, Gene No. 6620 [2]: −
Behavior of gene caused by administration of chemical substance, Gene No. 6303 (gene group (C), Unigene No. Rn.123063): −
Behavior of gene caused by administration of chemical substance, Gene No. 5878 (gene group (C), Unigene No. Rn.143213): −
Behavior of gene caused by administration of chemical substance, Gene No. 1131 (gene group (C), Unigene No. Rn.144946): −
Behavior of gene caused by administration of chemical substance, Gene No. 1562 (gene group (C), Unigene No. Rn.14744): −
Behavior of gene caused by administration of chemical substance, Gene No. 1741 (gene group (C), Unigene No. Rn.1647): +
Behavior of gene caused by administration of chemical substance, Gene No. 893 (gene group (C), Unigene No. Rn.164817): −
Behavior of gene caused by administration of chemical substance, Gene No. 6026 (gene group (C), Unigene No. Rn.167685): −
Behavior of gene caused by administration of chemical substance, Gene No. 154 (gene group (C), Unigene No. Rn.185941): −
Behavior of gene caused by administration of chemical substance, Gene No. 1993 (gene group (C), Unigene No. Rn.18728): −
Behavior of gene caused by administration of chemical substance, Gene No. 813 (gene group (C), Unigene No. Rn.201760): −
Behavior of gene caused by administration of chemical substance, Gene No. 2494 (gene group (C), Unigene No. Rn.23969): −
Behavior of gene caused by administration of chemical substance, Gene No. 2546 (gene group (C), Unigene No. Rn.24561): +
Behavior of gene caused by administration of chemical substance, Gene No. 3776 (gene group (C), Unigene No. Rn.43232): −
Behavior of gene caused by administration of chemical substance, Gene No. 3929 (gene group (C), Unigene No. Rn.4620): −
Behavior of gene caused by administration of chemical substance, Gene No. 1119 (gene group (C), Unigene No. Rn.9757): −
Behavior of gene caused by administration of chemical substance, Gene No. 6742 (gene group (C), Unigene No. Rn.9779): +
Behavior of gene caused by administration of chemical substance, Gene No. 5634 (gene group (C), Unigene No. Rn.9862): −
Behavior of gene caused by administration of chemical substance, Gene No. 5726 (gene group (D), Unigene No. Rn.9939): −
